Reference: patent US7396837B2, “Antitumoral analogs of lamellarins” (Pharma Mar, S.A.U., priority 2002, dated 2008)
Read-outs that look alike come from different tables or passages of the source.

Experiments:
Format in all cases: cell-based
HeLa-APL = assay: SRB colorimetric cell growth inhibition assay, HeLa-APL (aplidine resistant); settings: Homo sapiens; for GI50: read-out: GI50 HELA-APL; for CC50: read-out: LC50 HELA-APL; for IC (TGI): read-out: TGI HELA-APL
Excerpt: (§1) The finality of these assays is to interrupt the growth of an “in vitro” tumor cell culture by means a continued exhibition of the cells to the sample to be testing.
(§2) A colorimetric type of assay, using sulforhodamine B (SRB) reaction has been adapted for a quantitative measurement of cell growth and viability (following the technique described by P. A. Skehan, et al., J. Natl. Cancer Inst. 1990, 82, 1107-1112).
(§3) This form of assay employs 96 well cell culture microplates of 9 mm diameter (T. Mosmann et al., J. of Immunological Methods 1983, 65, 55-63; G. T. Faircloth et al., J. of Tissue and Culture Methods 1988, 11, 201-205).
(§4) Most of the cell lines are obtained from American Type Culture Collection (ATCC) derived from different human cancer types.
(§5) The values for mean +/− SD of data from triplicate wells are calculated. Some parameters for cellular responses can be calculated: GI=growth inhibition, TGI=total growth inhibition (cytostatic effect) and LC=cell killing (cytotoxic effect).

DU-145 = assay: SRB colorimetric cell growth inhibition assay, DU-145; settings: Homo sapiens; for CC50: cell killing (cytotoxic effect), read-out: LC50 DU-145; for GI50: GI=growth inhibition, read-out: GI50 DU-145; for IC (TGI): total growth inhibition (cytostatic effect), read-out: TGI DU-145
Excerpt: as §1, §2, §3, §4, §5

SK-MEL-28 = assay: SRB colorimetric cell growth inhibition assay, SK-MEL-28; settings: Homo sapiens, SK-MEL-28, MEL-28; for GI50: GI=growth inhibition, read-out: GI50 MEL-28; for CC50: cell killing (cytotoxic effect), read-out: LC50 MEL-28; for IC (TGI): total growth inhibition (cytostatic effect), read-out: TGI MEL-28
Excerpt: as §1, §2, §3, §4, §5

A-549 = assay: SRB colorimetric cell growth inhibition assay, A-549; settings: Homo sapiens, A549, A-549; for GI50: GI=growth inhibition, read-out: GI50 A-549; for CC50: cell killing (cytotoxic effect), read-out: LC50 A-549; for IC (TGI): total growth inhibition (cytostatic effect), read-out: TGI A-549
Excerpt: as §1, §2, §3, §4, §5

SK-BR-3 = assay: SRB colorimetric cell growth inhibition assay, SK-BR-3; settings: Homo sapiens; for CC50: cell killing (cytotoxic effect), read-out: LC50 SK-BR-3; for GI50: GI=growth inhibition, read-out: GI50 SK-BR-3; for IC (TGI): total growth inhibition (cytostatic effect), read-out: TGI SK-BR-3
Excerpt: as §1, §2, §3, §4, §5

PANC-1 = assay: SRB colorimetric cell growth inhibition assay, PANC-1; settings: Homo sapiens; for CC50: cell killing (cytotoxic effect), read-out: LC50 PANC-1; for IC (TGI): total growth inhibition (cytostatic effect), read-out: TGI PANC-1; for GI50: GI=growth inhibition, read-out: GI50 PANC-1
Excerpt: as §1, §2, §3, §4, §5

IGROV-ET = assay: SRB colorimetric cell growth inhibition assay, IGROV-ET (ET-743 resistant); settings: Homo sapiens, IGROV-ET; for GI50: GI=growth inhibition, read-out: GI50 IGROV-ET; for CC50: cell killing (cytotoxic effect), read-out: LC50 IGROV-ET; for IC (TGI): total growth inhibition (cytostatic effect), read-out: TGI IGROV-ET
Excerpt: as §1, §2, §3, §4, §5

LNCaP = assay: SRB colorimetric cell growth inhibition assay, LNCaP; settings: Homo sapiens, LNCaP, LN-caP; for GI50: GI=growth inhibition, read-out: GI50 LN-caP; for CC50: cell killing (cytotoxic effect), read-out: LC50 LN-caP; for IC (TGI): total growth inhibition (cytostatic effect), read-out: TGI LN-caP
Excerpt: as §1, §2, §3, §4, §5

HeLa = assay: SRB colorimetric cell growth inhibition assay, HeLa; settings: Homo sapiens, HeLa; for GI50: read-out: GI50 HELA; for CC50: read-out: LC50 HELA; for IC (TGI): read-out: TGI HELA
Excerpt: as §1, §2, §3, §4, §5

HT-29 = assay: SRB colorimetric cell growth inhibition assay, HT-29; settings: Homo sapiens; for CC50: cell killing (cytotoxic effect), read-out: LC50 HT-29; for GI50: GI=growth inhibition, read-out: GI50 HT-29; for IC (TGI): total growth inhibition (cytostatic effect), read-out: TGI HT-29
Excerpt: as §1, §2, §3, §4, §5

LoVo-Dox = assay: SRB colorimetric cell growth inhibition assay, LoVo-Dox (MDR); settings: Homo sapiens, LOVO-DOX; for GI50: GI=growth inhibition, read-out: GI50 LOVO-DOX; for CC50: cell killing (cytotoxic effect), read-out: LC50 LOVO-DOX; for IC (TGI): total growth inhibition (cytostatic effect), read-out: TGI LOVO-DOX
Excerpt: as §1, §2, §3, §4, §5

LoVo = assay: SRB colorimetric cell growth inhibition assay, LoVo; settings: Homo sapiens; for CC50: cell killing (cytotoxic effect), read-out: LC50 LOVO; for GI50: GI=growth inhibition, read-out: GI50 LOVO; for IC (TGI): total growth inhibition (cytostatic effect), read-out: TGI LOVO
Excerpt: as §1, §2, §3, §4, §5

IGROV = assay: SRB colorimetric cell growth inhibition assay, IGROV
Excerpt: as §1, §2, §3, §4, §5

K-562 = assay: SRB colorimetric cell growth inhibition assay, K-562; settings: Homo sapiens, K562, K-562
Excerpt: as §1, §2, §3, §4, §5

[1] = Homo sapiens, IGROV; cell killing (cytotoxic effect); read-out: LC50 IGROV
[2] = HELA-APL, cell killing (cytotoxic effect)
[3] = HELA-APL, total growth inhibition (cytostatic effect)
[4] = cell killing (cytotoxic effect)
[5] = total growth inhibition (cytostatic effect)
[6] = Homo sapiens, IGROV; GI=growth inhibition; read-out: GI50 IGROV
[7] = Homo sapiens, IGROV; total growth inhibition (cytostatic effect); read-out: TGI IGROV

## CC[C@H](C)[C@H](NC(=O)OC(C)(C)C)C(=O)Oc1ccc(-c2c3c4cc(OC)c(OC(=O)[C@@H](NC(=O)OC(C)(C)C)[C@@H](C)CC)cc4oc(=O)c3n3ccc4cc(OC(=O)[C@@H](NC(=O)OC(C)(C)C)[C@@H](C)CC)c(OC)cc4c23)cc1OC [Compound 208]
HeLa-APL
  GI50: 154 nM
  CC50: 1140 nM
  IC (TGI): 385 nM
DU-145; DU-145, DU-145
  CC50: 8780 nM
DU-145; DU-145
  GI50: 8780 nM
  IC (TGI): 8780 nM
SK-MEL-28
  GI50: 8780 nM
  CC50: 8780 nM
  IC (TGI): 8780 nM
A-549
  GI50: 8780 nM
  CC50: 8780 nM
  IC (TGI): 8780 nM
SK-BR-3; SK-BR-3, SK-BR-3
  CC50: 8780 nM
SK-BR-3; SK-BR-3
  GI50: 5010 nM
  IC (TGI): 7970 nM
PANC-1; PANC-1, PANC-1
  CC50: 8780 nM
  IC (TGI): 8780 nM
PANC-1; PANC-1
  GI50: 5920 nM
IGROV-ET
  GI50: 8780 nM
  CC50: 8780 nM
  IC (TGI): 8780 nM
LNCaP
  GI50: 1460 nM
  CC50: 5830 nM
  IC (TGI): 2910 nM
HeLa
  GI50: 208 nM
  CC50: 2310 nM
  IC (TGI): 618 nM
HT-29; HT-29, HT-29
  CC50: 8780 nM
HT-29; HT-29
  GI50: 8780 nM
  IC (TGI): 8780 nM
LoVo-Dox
  GI50: 8780 nM
  CC50: 8780 nM
  IC (TGI): 8780 nM
LoVo; LoVo
  CC50: 8780 nM
LoVo; LOVO
  GI50: 8780 nM
  IC (TGI): 8780 nM
IGROV; [1]
  CC50: 8780 nM
IGROV; Homo sapiens; IGROV; GI=growth inhibition; read-out: GI50 IGROV
  GI50: 8780 nM
IGROV; Homo sapiens; IGROV; total growth inhibition (cytostatic effect); read-out: TGI IGROV
  IC (TGI): 8780 nM

## C=CCOC(=O)N[C@@H](C)C(=O)Oc1ccc(-c2c3c4cc(OC)c(OC(=O)[C@H](C)NC(=O)OCC=C)cc4oc(=O)c3n3ccc4cc(OC(=O)[C@H](C)NC(=O)OCC=C)c(OC)cc4c23)cc1OC [Compound 210]
HeLa-APL; HELA-APL, GI=growth inhibition
  GI50: 516 nM
HeLa-APL; [2]
  CC50: 10400 nM
HeLa-APL; [3]
  IC (TGI): 3080 nM
DU-145; DU-145, DU-145
  GI50: 181 nM
  CC50: 631 nM
  IC (TGI): 339 nM
K-562; GI=growth inhibition, read-out: GI50 K-562
  GI50: 612 nM
K-562; cell killing (cytotoxic effect), read-out: LC50 K-562
  CC50: 6170 nM
K-562; total growth inhibition (cytostatic effect), read-out: TGI K-562
  IC (TGI): 2130 nM
A-549
  GI50: 477 nM
  CC50: 10400 nM
  IC (TGI): 3940 nM
SK-BR-3; SK-BR-3, SK-BR-3
  GI50: 397 nM
  CC50: 4590 nM
  IC (TGI): 1360 nM
PANC-1; PANC-1, PANC-1
  GI50: 398 nM
  CC50: 4870 nM
  IC (TGI): 1510 nM
IGROV-ET
  GI50: 145 nM
  CC50: 920 nM
  IC (TGI): 366 nM
HeLa; GI=growth inhibition
  GI50: 611 nM
HeLa; [4]
  CC50: 10400 nM
HeLa; [5]
  IC (TGI): 5540 nM
HT-29; HT-29, HT-29
  GI50: 7090 nM
  CC50: 10400 nM
  IC (TGI): 10400 nM
LoVo-Dox
  GI50: 2430 nM
  CC50: 10400 nM
  IC (TGI): 6040 nM
LoVo; LoVo
  GI50: 2050 nM
  CC50: 7760 nM
  IC (TGI): 3990 nM
IGROV; [6]
  GI50: 317 nM
IGROV; [1]
  CC50: 3650 nM
IGROV; [7]
  IC (TGI): 1060 nM

## CC[C@H](C)[C@H](N)C(=O)Oc1ccc(-c2c3c4cc(OC)c(OC(=O)[C@@H](N)[C@@H](C)CC)cc4oc(=O)c3n3ccc4cc(OC(=O)[C@@H](N)[C@@H](C)CC)c(OC)cc4c23)cc1OC [Compound 209]
HeLa-APL; HELA-APL, GI=growth inhibition
  GI50: 82.7 nM
HeLa-APL; [2]
  CC50: 517 nM
HeLa-APL; [3]
  IC (TGI): 221 nM
DU-145; DU-145, DU-145
  GI50: 4.29 nM
  CC50: 40.4 nM
  IC (TGI): 11.9 nM
SK-MEL-28
  GI50: 32.8 nM
  CC50: 480 nM
  IC (TGI): 83.9 nM
A-549
  GI50: 42.8 nM
  CC50: 713 nM
  IC (TGI): 195 nM
SK-BR-3; SK-BR-3, SK-BR-3
  GI50: 47.8 nM
  CC50: 101 nM
  IC (TGI): 69.5 nM
PANC-1; PANC-1, PANC-1
  GI50: 67.4 nM
  CC50: 1030 nM
  IC (TGI): 282 nM
IGROV-ET
  GI50: 31.7 nM
  CC50: 345 nM
  IC (TGI): 70.1 nM
LNCaP
  GI50: 15.8 nM
  CC50: 233 nM
  IC (TGI): 56 nM
HeLa; GI=growth inhibition
  GI50: 66.2 nM
HeLa; [4]
  CC50: 1010 nM
HeLa; [5]
  IC (TGI): 269 nM
HT-29; HT-29, HT-29
  GI50: 3380 nM
  CC50: 10500 nM
  IC (TGI): 9990 nM
LoVo-Dox
  GI50: 137 nM
  CC50: 2600 nM
  IC (TGI): 488 nM
LoVo; LoVo
  GI50: 119 nM
  CC50: 527 nM
  IC (TGI): 251 nM
IGROV; [6]
  GI50: 33.7 nM
IGROV; [1]
  CC50: 477 nM
IGROV; [7]
  IC (TGI): 124 nM
